Results: ChEMBL document CHEMBL2029279, “Structure-activity relationships and molecular modeling of the N-(3-pivaloyloxy-2-benzylpropyl)-N'-[4-(methylsulfonylamino)benzyl] thiourea template for TRPV1 antagonism” (Bioorg Med Chem Lett, 2012)
Active and inactive are the calls of the source. No cut-off for these calls is given here.

Legend:
[1] = target: Transient receptor potential cation channel subfamily V member 1 (Rattus norvegicus) (UniProt O35433); experiment: Agonist activity at rat TRPV1 expressed in CHO cells assessed as induction of 45Ca2+ uptake at 30 uM relative to capsaicin; format: functional, cell-based
Transient receptor potential cation channel subfamily V member 1 (Rattus norvegicus), sequence (O35433 whole entry): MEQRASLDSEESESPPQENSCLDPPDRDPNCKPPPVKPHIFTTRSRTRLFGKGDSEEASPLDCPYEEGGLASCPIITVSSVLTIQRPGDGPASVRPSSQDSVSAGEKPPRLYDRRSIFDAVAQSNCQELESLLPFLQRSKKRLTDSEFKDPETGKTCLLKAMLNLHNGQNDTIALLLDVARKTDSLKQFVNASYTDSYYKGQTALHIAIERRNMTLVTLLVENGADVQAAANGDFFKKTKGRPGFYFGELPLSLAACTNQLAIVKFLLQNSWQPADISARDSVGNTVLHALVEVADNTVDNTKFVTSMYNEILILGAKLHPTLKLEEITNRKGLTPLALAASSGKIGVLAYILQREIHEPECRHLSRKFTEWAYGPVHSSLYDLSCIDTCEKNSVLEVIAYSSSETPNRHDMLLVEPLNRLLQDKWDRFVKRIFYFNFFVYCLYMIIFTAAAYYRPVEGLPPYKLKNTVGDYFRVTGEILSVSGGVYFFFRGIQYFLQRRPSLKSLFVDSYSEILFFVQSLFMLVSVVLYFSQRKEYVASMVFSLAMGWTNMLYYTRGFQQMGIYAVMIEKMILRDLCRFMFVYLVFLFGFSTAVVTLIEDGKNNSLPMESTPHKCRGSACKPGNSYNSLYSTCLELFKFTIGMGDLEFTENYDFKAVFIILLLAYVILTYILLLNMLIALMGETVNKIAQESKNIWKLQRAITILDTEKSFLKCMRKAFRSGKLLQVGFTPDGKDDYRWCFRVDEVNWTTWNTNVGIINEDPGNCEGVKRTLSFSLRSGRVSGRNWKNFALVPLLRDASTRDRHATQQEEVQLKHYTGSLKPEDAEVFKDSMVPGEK

[2] = target: T1, Transient receptor potential cation channel subfamily V member 1 (Rattus norvegicus, UniProt O35433); experiment: Displacement of [3H]RTX from rat TRPV1 expressed in CHO cells; format: cell-based
T1 sequence (O35433 whole entry): as above

[3] = target: Transient receptor potential cation channel subfamily V member 1 (Rattus norvegicus) (UniProt O35433); experiment: Antagonist activity at rat TRPV1 expressed in CHO cells assessed as inhibition of 45Ca2+ uptake relative to control; format: functional, cell-based; set-up: scale not given: the % may be the effect or the level left
[4] = target: T1, Transient receptor potential cation channel subfamily V member 1; experiment: Antagonist activity at rat TRPV1 expressed in CHO cells assessed as inhibition of 45Ca2+ uptake; format: functional, cell-based

Activity [1] | Ki [2] [nM] | Activity [3] [%] | Ki [4] [nM] | Structure (SMILES)
8% | 416 | 31 | – | CC(C)(C)C(=O)OCC(Cc1ccc(C(C)(C)C)cc1)NC(=S)NCc1ccc(NS(C)(=O)=O)cc1 (stereo unspecified)
46% | 197 | 46 | 940 | CC(C)(C)C(=O)OCC(NC(=S)NCc1ccc(NS(C)(=O)=O)cc1)c1ccc(C(C)(C)C)cc1 (stereo unspecified)
inactive | 115 | – | 179 | CC(C)(C)C(=O)OCC(Cc1ccc(C(C)(C)C)cc1)NC(=S)NCc1ccc(NS(C)(=O)=O)c(F)c1 (stereo unspecified)
inactive | 190 | – | 152 | CC(C)(C)C(=O)OCC(CCc1ccc(C(C)(C)C)cc1)NC(=S)NCc1ccc(NS(C)(=O)=O)c(F)c1 (stereo unspecified)
inactive | 366 | – | 286 | CC(C)(C)C(=O)OCC(CCc1ccc(C(C)(C)C)cc1)NC(=S)NCc1ccc(NS(C)(=O)=O)cc1 (stereo unspecified)
19% | 580 | 48 | – | Cc1ccc(CC(COC(=O)C(C)(C)C)NC(=S)NCc2ccc(NS(C)(=O)=O)cc2)cc1C (stereo unspecified)
inactive | 143 | – | 91 | CC(C)(C)C(=O)OCC(CNC(=S)NCc1ccc(NS(C)(=O)=O)cc1)c1ccc(C(C)(C)C)cc1 (stereo unspecified)
5% | 390 | – | 33.7 | Cc1ccc(CCC(COC(=O)C(C)(C)C)NC(=S)NCc2ccc(NS(C)(=O)=O)cc2)cc1C (stereo unspecified)

The next lines start with the molecule.

Structure (SMILES) | Activity [1] | Ki [2] [nM] | Activity [3] [%] | Ki [4] [nM]
CC(C)(C)C(=O)OCC(C/N=C(\S)NCc1ccc(NS(C)(=O)=O)cc1)Cc1ccc(C(C)(C)C)cc1 (stereo unspecified) | 40% | – | – | –
Cc1ccc(CC(CN/C(S)=N/Cc2ccc(NS(C)(=O)=O)cc2)COC(=O)C(C)(C)C)cc1C (stereo unspecified) | 15% | – | – | –
CC(C)(C)C(=O)OCC(CNC(=S)NCc1ccc(NS(C)(=O)=O)c(F)c1)c1ccc(C(C)(C)C)cc1 (stereo unspecified) | inactive | 69 | – | 116
Cc1ccc(CC(COC(=O)C(C)(C)C)NC(=S)NCc2ccc(NS(C)(=O)=O)c(F)c2)cc1C (stereo unspecified) | inactive | 233 | – | 650
CC(C)(C)C(=O)OCC(NC(=S)NCc1ccc(NS(C)(=O)=O)c(F)c1)c1ccc(C(C)(C)C)cc1 (stereo unspecified) | 35% | 244 | 72 | 213
Cc1ccc(CCC(COC(=O)C(C)(C)C)NC(=S)NCc2ccc(NS(C)(=O)=O)c(F)c2)cc1C (stereo unspecified) | inactive | 120 | – | 111
Cc1ccc(CC(CNC(=S)NCc2ccc(NS(C)(=O)=O)c(F)c2)COC(=O)C(C)(C)C)cc1C (stereo unspecified) | inactive | – | – | –
